In paper PMC7922803, “Development and Validation of an LC-MS/MS Method for Quantification of the Novel Antibacterial Candidate DA-7010 in Plasma and Application to a Preclinical Pharmacokinetic Study” (Pharmaceuticals, 2021):
Where “and” joins values, the source holds several entries; their conditions need not be identical. Identical values can stand only once.

Legend:
[1] = system: carbapenem-resistant Acinetobacter baumannii; set-up: method as in earlier work; settings: mice systemically infected with carbapenem-resistant Acinetobacter baumannii; cited from earlier work
[2] = system: Gram-negative bacteria (except for Pseudomonas aeruginosa); set-up: method as in earlier work; settings: cited from earlier work
[3] = Stability of DA-7010 in dog plasma under various storage conditions; type: in vitro ADME; settings: n = 3, mean ± SD
Experimental: (§1) The stability of DA-7010 in the plasma from the mice, rats, and dogs was evaluated by analyzing 3 replicates of low, medium, and high QC samples under various storage conditions: the bench-top short-term stability (at room temperature for 8 h), post-preparative stability (prepared samples kept in LC vials at 4 °C for 24 h), freeze–thaw stability (3 freeze/thaw (−20 °C/room temperature) cycles), and long-term freezing stability (−20 °C for 1 month). The analyte was determined to be stable when the estimated recovery (determined concentration/nominal concentration × 100%) was in the range of 85–115% and the RSD was < 15%.

[4] = Stability of DA-7010 in rat plasma under various storage conditions; type: in vitro ADME; settings: n = 3, mean ± SD
Experimental: as §1

[5] = Stability of DA-7010 in mouse plasma under various storage conditions; type: in vitro ADME; settings: n = 3, mean ± SD
Experimental: as §1

[6] = Pharmacokinetic study after single oral administration to rats; type: in vivo; settings: male, Sprague-Dawley, plasma, rat
Source text: (§2) The validated method was applied to pharmacokinetic studies of DA-7010 in mice, rats, and dogs. The protocols for the animal study were approved by the Department of Laboratory Animals, Institutional Animal Care and Use Committee (IACUC), on the Sungsim Campus of the Catholic University of Korea (approval no. 2014-022) or by IACUC of Biotoxtech (Cheongju, South Korea) (approval no. 140765). Male ICR mice and Sprague-Dawley rats (~8 weeks old) were purchased from Samtaco Bio (Osan, South Korea). Male beagle dogs (~10 months old), which are products from Beijing Marshall Biotechnology (Beijing, China), were used for this study. The accommodation and handling procedures for the animals were similar to those previously reported. Prior to dosing, the animals were fasted for 15 h and allowed to drink water freely. DA-7010 hydrochloride was administered in the pharmacokinetic study, and the dose of DA-7010 described below is based on the free base form of DA-7010.
For the rat, the carotid artery was cannulated for serial blood sampling. DA-7010 (dissolved in distilled water) at a dose of 3 mg (in 2 mL) per kilogram was administered orally to the rats (n = 7) using gastric gavage. Blood samples (~50 μL) were collected at 0, 5, 10, 20, 30, 60, 120, 240, 360, 480, and 720 min via the carotid artery following the oral administration of the drug. The cannula was flushed immediately after each blood sampling to prevent blood clotting using a 0.3 mL heparinized 0.9% NaCl-injectable solution (20 units/mL). The same procedure described above was used for the collection and storage of the plasma samples.
(§3) The pharmacokinetic parameters were calculated using noncompartmental analyses (WinNonlin; Pharsight Corporation, Mountain View, CA, USA). The AUC0-∞ was calculated using the trapezoidal rule-extrapolation method. The Cmax and Tmax were read directly from the experimental data.

[7] = Pharmacokinetic study after single oral administration to mice; type: in vivo; settings: male, ICR, mouse, plasma
Source text: as §2
DA-7010 (dissolved in distilled water) at a dose of 3 mg (in 10 mL) per kilogram was administered orally to the mouse groups A and B (n = 6 each) using gastric gavage. Blood samples (~ 50 μL) were collected into separate heparinized capillary tubes from the retro-orbital plexuses of mice that were under light anesthesia, which was achieved by isoflurane inhalation at 5, 30, 120, and 480 min for group A and 15, 60, 240, and 600 min for group B following the oral administration of DA-7010. The collected sample was immediately centrifuged, and a 25 μL plasma sample was stored at −20 °C until it was used for the LC-MS/MS analyses of DA-7010.
as §3

[8] = Stability of DA-7010 in plasma, summary over all species; type: in vitro ADME, mice, rats, and dogs
Experimental: as §1

[9] = Pharmacokinetic study after single oral administration to dogs; type: in vivo
Source text: as §2
For the oral administration of DA-7010 in dogs, 3 mg/kg DA-7010 was loaded in a gelatin capsule (size 12, Torpac Inc., Fairfield, NJ, USA) without other excipients. Approximately 2 mL of blood was collected via the cephalic vein using a heparinized (100 IU/mL) 23 G syringe at pre-dose and 15, 30, 45, 60, 120, 240, 360, 480, 720, and 1440 min after the administration of the drug. The collection and storage of each plasma sample (25 μL) and extra plasma sample were performed using the same procedure described above.
as §3

[10] = 3 freeze/thaw (–20 °C/room temperature) cycles, nominal 30 ng/mL
[11] = 3 freeze/thaw (–20 °C/room temperature) cycles, nominal 400 ng/mL
[12] = 3 freeze/thaw (–20 °C/room temperature) cycles, nominal 8000 ng/mL
[13] = long term (‒20 °C over 1 month), nominal 30 ng/mL
[14] = long term (‒20 °C over 1 month), nominal 400 ng/mL
[15] = long term (‒20 °C over 1 month), nominal 8000 ng/mL
[16] = prepared plasma samples in LC vials, post-preparative (prepared samples 4 °C 24 h), nominal 30 ng/mL
[17] = prepared plasma samples in LC vials, post-preparative (prepared samples 4 °C 24 h), nominal 400 ng/mL
[18] = prepared plasma samples in LC vials, post-preparative (prepared samples 4 °C 24 h), nominal 8000 ng/mL
[19] = short term (room temperature 8 h), nominal 30 ng/mL
[20] = short term (room temperature 8 h), nominal 400 ng/mL
[21] = short term (room temperature 8 h), nominal 8000 ng/mL
[22] = representative sample 4 h after oral 3 mg/kg, read-out: Plasma concentration of DA-7010
[23] = rats (n = 7), single oral dose 3 mg/kg, mean ± SD
[24] = mice, single oral dose 3 mg/kg, from mean concentration–time profile
[25] = male, beagle, dog, plasma, dogs (n = 4), single oral dose 3 mg/kg in gelatin capsule, mean ± SD

C[C@@H]1COB2O[C@H](CN)c3cccc(c32)O1 [DA-7010, ((2S,7R)-7-methyl-7,8-dihydro-2H-1,6,9-trioxa-9a-borabenzo[cd]azulen-2-yl)methanamine]
ED50 (effective oral dose that protected 50% of mice) [1]: 3 mg/kg and 1.9 to 3 mg/kg
minimum inhibitory concentration (MIC) [2]: 0.25 to 2 µg/mL
recovery at 30 ng/mL [3, 10]: 110 ± 3.32%
recovery at 400 ng/mL [3, 11]: 107 ± 2.01%
recovery at 8000 ng/mL [3, 12]: 114 ± 0.0718%
recovery at 1 month, 30 ng/mL [3, 13]: 113 ± 0.5%
recovery at 1 month, 400 ng/mL [3, 14]: 97.3 ± 1.22%
recovery at 1 month, 8000 ng/mL [3, 15]: 111 ± 3.13%
recovery at 24 h, 30 ng/mL [3, 16]: 110 ± 5.48%
recovery at 24 h, 400 ng/mL [3, 17]: 108 ± 1.72%
recovery at 24 h, 8000 ng/mL [3, 18]: 116 ± 2.34%
recovery at 8 h, 30 ng/mL [3, 19]: 107 ± 3.08%
recovery at 8 h, 400 ng/mL [3, 20]: 92.9 ± 1.62%
recovery at 8 h, 8000 ng/mL [3, 21]: 108 ± 1.22%
recovery at 30 ng/mL [4, 10]: 107 ± 5.92%
recovery at 400 ng/mL [4, 11]: 94.8 ± 6.2%
recovery at 8000 ng/mL [4, 12]: 100 ± 0.407%
recovery at 1 month, 30 ng/mL [4, 13]: 85.5 ± 0.618%
recovery at 1 month, 400 ng/mL [4, 14]: 95.2 ± 3.3%
recovery at 1 month, 8000 ng/mL [4, 15]: 107 ± 2.67%
recovery at 24 h, 30 ng/mL [4, 16]: 95.5 ± 3.65%
recovery at 24 h, 400 ng/mL [4, 17]: 101 ± 1.33%
recovery at 24 h, 8000 ng/mL [4, 18]: 111 ± 4.06%
recovery at 8 h, 30 ng/mL [4, 19]: 110 ± 4.64%
recovery at 8 h, 400 ng/mL [4, 20]: 97.9 ± 0.394%
recovery at 8 h, 8000 ng/mL [4, 21]: 104 ± 0.647%
recovery at 30 ng/mL [5, 10]: 109 ± 6.63%
recovery at 400 ng/mL [5, 11]: 91.2 ± 2.22%
recovery at 8000 ng/mL [5, 12]: 87.7 ± 2.58%
recovery at 1 month, 30 ng/mL [5, 13]: 106 ± 1.54%
recovery at 1 month, 400 ng/mL [5, 14]: 95.5 ± 3.04%
recovery at 1 month, 8000 ng/mL [5, 15]: 88.5 ± 1.77%
recovery at 24 h, 30 ng/mL [5, 16]: 106 ± 5.14%
recovery at 24 h, 400 ng/mL [5, 17]: 92.7 ± 2.58%
recovery at 24 h, 8000 ng/mL [5, 18]: 89.9 ± 7.84%
recovery at 8 h, 30 ng/mL [5, 19]: 109 ± 4.97%
recovery at 8 h, 400 ng/mL [5, 20]: 97.5 ± 6.48%
recovery at 8 h, 8000 ng/mL [5, 21]: 89 ± 2.24%
concentration at 4 h [6, 22]: 648 ng/mL
AUC(0-inf) [6, 23]: 5320 ng·h/mL
Cmax [6, 23]: 1330 ± 427 ng/mL
half-life ([6]; rats (n = 7), single oral dose 3 mg/kg, mean ± SD, read-out: Terminal half-life): 2.88 ± 0.81 h
Tmax ([6]; rats (n = 7), single oral dose 3 mg/kg, median (range)): 0.333 h
Cmax [7, 24]: 1280 ng/mL
Tmax [7, 24]: 0.25 h
AUC(0-inf) ([7]; mice, single oral dose 3 mg/kg, from mean concentration–time profile (n = 6 per point)): 3920 ng·h/mL
half-life ([7]; mice, single oral dose 3 mg/kg, from mean concentration–time profile, read-out: Terminal half-life): 2.08 h
concentration at 4 h [7, 22]: 334 ng/mL
Stability, mean recoveries ([8]; 8 h at room temperature, 24 h in LC vial at 4 °C after preparation, 1 month at –20 °C): > 85.5%
Stability, mean recoveries ([8]; after three freeze/thaw (–20 °C/room temperature) cycles): > 87.7%
AUC(0-inf) [9, 25]: 21800 ng·h/mL
Cmax [9, 25]: 1820 ± 90.1 ng/mL
half-life ([9]; male, beagle, dog, plasma, dogs (n = 4), single oral dose 3 mg/kg in gelatin capsule, mean ± SD, read-out: Terminal half-life): 7.53 ± 0.563 h
Tmax ([9]; male, beagle, dog, plasma, dogs (n = 4), single oral dose 3 mg/kg in gelatin capsule, median (range)): 1 h
concentration at 4 h ([9]; male, beagle, plasma, dog, representative sample 4 h after oral 3 mg/kg, read-out: Plasma concentration of DA-7010): 1950 ng/mL
Systemic exposure in dogs relative to mice or rats ([9]; single oral dose 3 mg/kg): approximately four times higher
